Experimental data published in PubChem BioAssay (NCI).
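Method: 48-hour compound exposure of cells in 96-well plates, five concentrations, linear interpolation of endpoints. TGI: concentration producing complete growth inhibition.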

What was measured:
Assay in all cases: NCI-60 cell line screen, 48 h
[1] = system: HOP-92 NSCLC
[2] = system: A549 NSCLC
[3] = system: HCT-15 colon
[4] = system: HCT-116 colon
[5] = system: MALME-3M melanoma
[6] = system: SF-295 CNS
[7] = system: SK-MEL-2 melanoma
[8] = system: ACHN renal
[9] = system: MDA-N
[10] = system: MDA-MB-231 breast
[11] = system: CCRF-CEM leukemia
[12] = system: RXF 393 renal
[13] = system: A498 renal
[14] = system: NCI-H23 lung
[15] = system: SN12C renal
[16] = system: UACC-62 melanoma
[17] = system: NCI/ADR-RES ovarian
[18] = system: SK-MEL-5 melanoma
[19] = system: T-47D breast
[20] = system: SNB-75 CNS

Measured: TGI

COC(=O)CC1C(COC(C)=O)OC(n2cc(C)c(=O)[nH]c2=O)C1OC(C)=O (stereo not given)
> 100 µM: all assays above
